Patent EP0166726B1, “10-ETHYL-8,10-DIDEAZAMINOPTERINS” (SRI INTERNATIONAL, priority 1983, dated 1985)

Tested on: L-1210 leukemia cells
Assay: L-1210 murine leukemia assay (increase in median life span)
Format: in vivo, Mice
Settings: for ILS%: increase in median life span vs untreated controls, at LD10 dose, 5 injections every other day starting one day after transplantation of 10^6 tumor cells/mouse; for LD10 Dose: mice, injected once per day every other day, total of 5 injections; for Cells Remaining: number of neoplastic cells remaining after treatment at LD10 dose, 10^6 tumor cells/mouse transplanted
Protocol: This is a standard assay that is used to evaluate the efficacy of compounds as antineoplastic agents for treating humans. The assay is described by D. J. Hitchinson, D. C. Robinson, D. Martin, O. L. Ittenson and Dillenberg, Journal Cancer Research, (1962) 22:57-72. It is a procedure for evaluating a compound for increase in median life span in treated animals and unteated controls both infected with L-1210 leukemia cells. […] Mice are injected once per day every other day for a total of 5 injections starting one day after transplantation of 10^6 tumor cells/mouse. The results of this assay with several, 8,10-dideazaminopterin analogs were as follows:
It is apparent from the above results that the life spans of the mice were increased considerably by administration of the invention compound and that this compound has surprising activity when compared to the non-alkylated and n-propyl or methyl analogs. The % ILS data represent comparisons of log values, and thus differences in the % ILS which appear minor mask large differences in cytotoxic activity. Thus, as shown, the ethyl derivative is 40 times as effective as the unsubstituted compound and 100 times as effective as the n-propyl derivative in terms of reducing the number of neoplastic cells; i.e., e.g., the number of cells remaining after 10-ethyl analog treatment is only 1/40 and 1/100 of that remaining from treatment with the above analogs, respectively. The assay and these conclusions are described by Schabel, F. M., Symposium on Proliferation and Spread of Neoplastic Cells, M. D. Anderson, Tumor Institute, Houston, Texas (1968), p. 379 ff.

Question: 10-Methyl-8,10-dideazaminopterin was tested. Which ILS% did it give?
Answer: +203%

Question: What about the “LD10 Dose” value of the same molecule?
Answer: 0.6 Mg/Kg

Question: What about the “Cells Remaining” value of the same molecule?
Answer: 1000

Question: “10-Propyl-8,10-dideazaminopterin [10-n-propyl-8,10-dideazaminopterin]” was tested. Which ILS% did it give?
Answer: +176%

Question: What about the “LD10 Dose” value of the same molecule?
Answer: 6.0 Mg/Kg

Question: What about the “Cells Remaining” value of the same molecule?
Answer: 10,000

Question: Which ILS% does the source give for 10-ethyl-8,10-dideazaminopterin here?
Answer: +235%

Question: What about the “LD10 Dose” value of the same molecule?
Answer: 1.5 Mg/Kg

Question: What about the “Cells Remaining” value of the same molecule?
Answer: 100

Question: What about the “times as effective as the unsubstituted compound in terms of reducing the number of neoplastic cells” value (relative to 8,10-dideazaminopterin, ratio of cells remaining) of the same molecule?
Answer: 40 times

Question: And the “times as effective as the n-propyl derivative in terms of reducing the number of neoplastic cells” value (relative to 10-n-propyl-8,10-dideazaminopterin, ratio of cells remaining)?
Answer: 100 times

Question: `Nc1nc(N)c2nc(CCc3ccc(C(=O)N[C@@H](CCC(=O)O)C(=O)O)cc3)ccc2n1` [8,10-dideazaminopterin] was tested. Which ILS% did it give?
Answer: +189%

Question: What about the “LD10 Dose” value of the same molecule?
Answer: 0.75 Mg/Kg

Question: What about the “Cells Remaining” value of the same molecule?
Answer: 4000

Question: With `CN(Cc1cnc2nc(N)nc(N)c2n1)c1ccc(C(=O)N[C@@H](CCC(=O)O)C(=O)O)cc1` [Methotrexate] as the molecule, how does the ILS% read?
Answer: +187%

Question: And the “LD10 Dose” value?
Answer: 15 Mg/Kg
